The text below walks through data of ChEMBL document CHEMBL1149309, “Potent, selective and low-calcemic inhibitors of CYP24 hydroxylase: 24-sulfoximine analogues of the hormone 1alpha,25-dihydroxyvitamin D(3)” (J Med Chem, 2004).

Broadly, the IC50 is the midpoint of a concentration-inhibition curve. A lower IC50 goes with inhibition by little substance.

The first test concerns the target T1, 1,25-dihydroxyvitamin D(3) 24-hydroxylase, mitochondrial (Homo sapiens, UniProt Q07973).
T1 sequence (Q07973 whole entry): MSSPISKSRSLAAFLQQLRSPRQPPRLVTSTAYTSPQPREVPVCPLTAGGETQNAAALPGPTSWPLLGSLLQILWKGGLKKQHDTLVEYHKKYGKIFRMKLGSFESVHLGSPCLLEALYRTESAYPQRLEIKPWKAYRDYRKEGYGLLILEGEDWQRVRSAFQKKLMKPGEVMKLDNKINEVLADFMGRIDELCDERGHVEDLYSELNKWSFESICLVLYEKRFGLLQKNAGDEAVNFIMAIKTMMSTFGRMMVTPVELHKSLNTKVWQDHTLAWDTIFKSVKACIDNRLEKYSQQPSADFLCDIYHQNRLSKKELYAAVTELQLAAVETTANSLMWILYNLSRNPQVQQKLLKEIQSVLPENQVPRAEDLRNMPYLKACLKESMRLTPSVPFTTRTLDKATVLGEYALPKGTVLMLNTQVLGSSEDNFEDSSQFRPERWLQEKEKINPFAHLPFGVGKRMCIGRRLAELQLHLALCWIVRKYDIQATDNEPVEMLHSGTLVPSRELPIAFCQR
The experiment in a line: Inhibition of human CYP24 hydroxylase expressed in V79 cells.
Settings: not given
In kind it is cell-based.
As to `C=C1CC[C@H](O)C/C1=C/C=C1\CCC[C@]2(C)[C@@H]([C@H](C)CC[S+](=N)([O-])c3ccccc3)CC[C@@H]12` (stereo partly drawn), the IC50 came to 75 nM.
With `C=C1/C(=C\C=C2/CCC[C@]3(C)[C@@H]([C@@H](C)/C=C/[S+](=N)([O-])c4ccccc4)CC[C@@H]23)C[C@@H](O)C[C@@H]1O` (stereo partly drawn), the concentration for half-maximal inhibition (IC50) was 549 nM.
`C=C1/C(=C\C=C2/CCC[C@]3(C)[C@@H]([C@H](C)/C=C(\F)[S+](=N)([O-])c4ccccc4)CC[C@@H]23)C[C@@H](O)C[C@@H]1O` (stereo partly drawn): the IC50 is > 1000 nM.
As for `C=C1/C(=C\C=C2/CCC[C@]3(C)[C@@H]([C@H](C)/C=C/[S+](=N)([O-])c4ccccc4)CC[C@@H]23)C[C@@H](O)C[C@@H]1O` (stereo partly drawn), the half-maximal inhibitory concentration (IC50) was > 1000 nM.
As for `C=C1/C(=C\C=C2/CCC[C@]3(C)[C@@H]([C@H](C)CCS(=N)(=O)c4ccccc4)CC[C@@H]23)C[C@@H](O)C[C@@H]1O` (stereo in doubt; 3a) [listing 1 of 2 here], the IC50 was 7.4 nM.
`C[C@H](CC[S+](=N)([O-])c1ccccc1)[C@H]1CC[C@H]2/C(=C/C=C3C[C@@H](O)C[C@H](O)C3)CCC[C@]12C` (stereo in doubt; 3c) showed an IC50 of 13 nM.
`C[C@H](CC[S+](=N)([O-])c1ccccc1)[C@H]1CC[C@H]2/C(=C/C=C3C[C@@H](O)C[C@H](O)C3)CCC[C@]12C` (stereo in doubt; 3d): the IC50 was 9.7 nM.
With `C=C1/C(=C\C=C2/CCC[C@]3(C)[C@@H]([C@H](C)CC4([S+](=N)([O-])c5ccccc5)CC4)CC[C@@H]23)C[C@@H](O)C[C@@H]1O` (stereo in doubt; 3f), the IC50 turned out to be 20.5 nM.
In the case of `C=C1/C(=C\C=C2/CCC[C@]3(C)[C@@H]([C@H](C)CC4([S+](=N)([O-])c5ccccc5)CC4)CC[C@@H]23)C[C@@H](O)C[C@@H]1O` (stereo in doubt; 3g), 50 nM corresponded to half-maximal inhibition (IC50).
In turn, `C=C1/C(=C\C=C2/CCC[C@]3(C)[C@@H]([C@H](C)CC[S+](=N)([O-])c4ccc(F)cc4)CC[C@@H]23)C[C@@H](O)C[C@@H]1O` (stereo in doubt; 3i) displayed a 50% inhibitory concentration (IC50) of 44 nM.

The target in the next test is T2, Vitamin D3 receptor (Homo sapiens) (UniProt P11473).
T2 sequence (whole entry): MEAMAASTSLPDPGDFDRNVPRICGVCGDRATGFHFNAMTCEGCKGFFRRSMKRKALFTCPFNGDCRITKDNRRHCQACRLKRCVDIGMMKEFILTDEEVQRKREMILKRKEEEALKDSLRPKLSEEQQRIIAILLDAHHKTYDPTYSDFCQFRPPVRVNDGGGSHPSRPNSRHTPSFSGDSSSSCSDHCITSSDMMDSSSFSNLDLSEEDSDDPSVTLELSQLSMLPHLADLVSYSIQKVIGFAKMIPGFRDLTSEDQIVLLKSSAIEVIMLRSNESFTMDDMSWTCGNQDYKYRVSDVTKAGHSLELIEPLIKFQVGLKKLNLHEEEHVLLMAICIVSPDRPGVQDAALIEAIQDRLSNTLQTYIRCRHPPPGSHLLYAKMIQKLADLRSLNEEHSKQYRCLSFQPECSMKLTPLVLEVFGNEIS
To be noted: CV-1.
Description: Effect on VDR-mediated transcriptional activity in CV1 cells transfected with human recombinant VDR
As to `C=C1/C(=C\C=C2/CCC[C@]3(C)[C@@H]([C@H](C)CCS(=N)(=O)c4ccccc4)CC[C@@H]23)C[C@@H](O)C[C@@H]1O` (stereo in doubt; 3a) [listing 2 of 2 here], the ED50 is > 1000 nM.
Regarding `C=C1/C(=C\C=C2/CCC[C@]3(C)[C@@H]([C@H](C)CCS(=N)(=O)c4ccccc4)CC[C@@H]23)C[C@@H](O)C[C@@H]1O` (stereo in doubt; 3b), the ED50 was > 1000 nM.

A further test deals with T3, 25-hydroxyvitamin D-1 alpha hydroxylase, mitochondrial (Homo sapiens, UniProt O15528).
T3 sequence (O15528 whole entry): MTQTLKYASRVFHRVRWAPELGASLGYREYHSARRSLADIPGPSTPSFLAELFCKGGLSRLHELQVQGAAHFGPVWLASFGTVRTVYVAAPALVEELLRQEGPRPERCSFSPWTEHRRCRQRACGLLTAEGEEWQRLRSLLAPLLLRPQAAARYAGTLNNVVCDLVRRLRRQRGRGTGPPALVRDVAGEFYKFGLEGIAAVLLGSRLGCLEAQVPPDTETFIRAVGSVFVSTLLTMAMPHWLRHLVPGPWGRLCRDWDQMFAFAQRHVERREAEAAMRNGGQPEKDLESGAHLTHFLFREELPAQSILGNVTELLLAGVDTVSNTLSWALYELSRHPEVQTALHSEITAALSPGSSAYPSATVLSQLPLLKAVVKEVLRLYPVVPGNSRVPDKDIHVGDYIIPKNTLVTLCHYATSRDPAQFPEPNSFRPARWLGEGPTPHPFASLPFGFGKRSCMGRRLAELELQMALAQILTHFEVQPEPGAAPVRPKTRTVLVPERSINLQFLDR
The experiment in a line: Inhibition of human CYP27B hydroxylase expressed in SW900 cells. In kind it is cell-based.
Settings: not given
For the compound `C=C1/C(=C\C=C2/CCC[C@]3(C)[C@@H]([C@H](C)CCS(=N)(=O)c4ccccc4)CC[C@@H]23)C[C@@H](O)C[C@@H]1O` (stereo in doubt; 3a) [listing 1 of 2 here], 554 nM corresponded to half-maximal inhibition (IC50).
